Tests used:
[1] = target: T1, HMG CoA reductase (Rattus norvegicus, UniProt P51639); experiment: Inhibition of HMG CoA reductase catalysis in rat liver microsomes (radioactive assay of mevalonate production); assay type: biochemical; details: for IC50: pH 6.8, 37° C., 15-min. incubation, four concentrations in triplicate, 14C-HMG CoA substrate
T1 construct: measured with rat liver microsomes; from tissue; host or cells: rat liver microsomes
T1 sequence (P51639 1-887): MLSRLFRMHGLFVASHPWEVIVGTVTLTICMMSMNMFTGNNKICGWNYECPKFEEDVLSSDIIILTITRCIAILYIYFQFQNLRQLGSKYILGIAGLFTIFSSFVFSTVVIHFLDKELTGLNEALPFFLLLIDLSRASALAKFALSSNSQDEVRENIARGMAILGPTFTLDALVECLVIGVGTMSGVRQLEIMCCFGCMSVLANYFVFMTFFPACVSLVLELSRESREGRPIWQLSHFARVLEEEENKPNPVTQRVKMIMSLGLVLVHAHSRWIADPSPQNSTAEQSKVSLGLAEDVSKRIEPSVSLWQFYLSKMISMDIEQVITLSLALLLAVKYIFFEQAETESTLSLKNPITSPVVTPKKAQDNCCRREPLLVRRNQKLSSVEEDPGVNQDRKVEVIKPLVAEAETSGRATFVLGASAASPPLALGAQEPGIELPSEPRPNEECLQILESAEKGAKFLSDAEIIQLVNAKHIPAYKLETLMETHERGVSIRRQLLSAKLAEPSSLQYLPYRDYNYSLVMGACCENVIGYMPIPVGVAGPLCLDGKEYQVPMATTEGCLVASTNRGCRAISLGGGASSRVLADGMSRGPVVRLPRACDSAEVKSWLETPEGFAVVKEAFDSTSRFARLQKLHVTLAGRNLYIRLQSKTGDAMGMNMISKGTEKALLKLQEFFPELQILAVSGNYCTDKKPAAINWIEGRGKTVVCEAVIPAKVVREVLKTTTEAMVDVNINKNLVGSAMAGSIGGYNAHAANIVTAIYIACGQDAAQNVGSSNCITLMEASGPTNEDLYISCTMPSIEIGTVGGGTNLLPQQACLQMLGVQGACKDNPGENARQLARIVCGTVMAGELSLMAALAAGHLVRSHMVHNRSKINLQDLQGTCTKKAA
Protocol: The antihypercholesterolemic activity of each novel compound was measured using the following test. The potency of compactin and each analog as an inhibitor of HMG CoA reductase catalysis was measured with rat liver microsomes. […] Four concentrations of each compound ranging over four appropriate orders of magnitude were tested. The effect on the initial velocity of mevalonate production was determined in a radioactive assay system. […] All components but the ^14 C-HMG CoA were preincubated at 37° C. for 10 min. The inhibitor in 10 μL of DMSO was then added (control samples received DMSO only) and a 15-min. incubation was initiated by the addition of substrate. Catalysis was terminated with 33% aqueous KOH (50 μL). After 30 min., 25 μL of aqueous 0.05% bromophenol, 70000 dpm of (5-^3 H)-mevalono-lactone in 25 μL of H2 O (recovery standard) and 90 μL of 5 N aqueous HCl were added. […] Quantities of collected ^14 C-mevalonate mevalonate were corrected for ^3 -mevalonate recovery before conversion to catalytic rates. Each inhibitor concentration was assayed in triplicate and conversion of (S)-HMG Coenzyme A to product was always less than 20%. Rates in the presence of inhibitors were compared to control rates to generate % inhibition values. When % inhibition was plotted against inhibitor concentration, the resulting curve provided an IC50 value for the inhibitor in question, IC50 being defined as the concentration required to inhibit the enzyme by 50% of control.

[2] = test system: biosynthesis of cholesterol; details: background; cited from earlier work
[3] = test system: HMG CoA reductase; details: background, U.S. Pat. Nos. 4,049,495, 4,137,332, 3,983,140; cited from earlier work

Row | Compound | IC50 [1] | antihypercholesterolemic activity (HMG CoA reductase inhibition, in words) [1] | inhibition of the biosynthesis of cholesterol (in words) [2] | inhibition of HMG CoA reductase (in words) [3]
1 | CC[C@H](C)C(=O)O[C@H]1CCC=C2C=C[C@H](C)[C@H](COC(=O)C[C@@H](O)CC(=O)O)[C@H]21 [Formula 63*, (1S,2S,8S,8aR)-1-[(S)-(3-Hydroxy-4-carboxybutyryl)oxymethyl]-2-methyl-8-[(S)-(2methylbutyryl)oxy]-1,2,6,7,8a-hexahydronaphthalene] | 300 nM | possessing antihypercholesterolemic activity |  | 
2 | CC[C@H](C)C(=O)O[C@H]1C[C@@H](C)C=C2C=C[C@H](C)[C@H](CC[C@@H]3C[C@@H](O)CC(=O)O3)[C@H]21 [Formula 2] |  |  | potent as inhibitors of the biosynthesis of cholesterol | display utility as inhibitors of the enzyme hydroxymethylglutaryl coenzyme A reductase
3 | CC[C@H](C)C(=O)O[C@H]1CCC=C2C=C[C@H](C)[C@H](CC[C@@H]3C[C@@H](O)CC(=O)O3)[C@H]21 [Formula 1] | 9 nM |  | potent as inhibitors of the biosynthesis of cholesterol | display utility as inhibitors of the enzyme hydroxymethylglutaryl coenzyme A reductase

The next lines start with results.

Row | IC50 [1] | Compound | antihypercholesterolemic activity (HMG CoA reductase inhibition, in words) [1] | inhibition of the biosynthesis of cholesterol (in words) [2] | inhibition of HMG CoA reductase (in words) [3]
4 | 16 nM | CC[C@H](C)C(=O)O[C@H]1CCC=C2C=C[C@H](C)[C@H](CCC(=O)C[C@@H](O)CC(=O)O)[C@H]21 [Formula 53] | possessing antihypercholesterolemic activity |  | 
5 | 230 nM | CC[C@H](C)C(=O)O[C@H]1CCC=C2C=C[C@H](C)[C@H](/C=C/C(=O)C[C@@H](O)CC(=O)O)[C@H]21 [Formula 41*] | possessing antihypercholesterolemic activity |  | 
